Like-named read-outs stand apart in the source and are kept apart here.
Key:
[1] = target: T1, endogenous amyloid-β (Abeta) plaques in the 5XFAD brain lysate (Homo sapiens, UniProt P05067); test: HATCO assay (high-throughput amyloid Thioflavin competitive binding optical assay), thioflavin-T fluorescence readout; set-up: species or system 5XFAD mice; conditions: for IC50: competition with thioflavin-T for Abeta in 5XFAD brain lysate, 384-well, 4-parameter fit
T1 construct: coexpressed five familial AD (FAD) and additively increase Abeta-42 production; from tissue; host or cells: midbrain lysate (supernatant) of 8-month-old 5XFAD transgenic mice
T1 sequence (P05067 672-713 limits assumed): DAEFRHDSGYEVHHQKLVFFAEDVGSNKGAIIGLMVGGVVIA
Text: However, when bound to Abeta plaque, its FL increases dramatically and results in a strong FL signal with a characteristically shifted λmax to approximately 485 nm. In view thereof, as opposed to existing methods that detect binding of the dye through increased fluorescence, the present methods identify amyloid-binding compounds through a lack of binding between the dye and the amyloid, as evidenced by attenuated fluorescence. […] Accordingly, in some embodiments, the method of screening includes combining the target compound(s) with a dye (e.g., Thioflavin-T) and endogenous amyloid (e.g., endogenous amyloid-β (Abeta) plaques in the 5XFAD brain lysate), then measuring the fluorescence of the combination. In some embodiments, the fluorescence of the combination is then compared to negative and/or positive control.
HATCO competitive binding study. […] To facilitate the generation of concentration-response curves, fluorescence at each data point was averaged on a compound-by-compound basis and plotted as a function of concentration. […] From this curve, IC50 values for each compound were calculated by fitting the data to a 4-parameter logistical model in the GraphPad software package.
Brain lysate preparation—Excised midbrains of 5XFAD (8-month-old) or wt mice (age-matched) were homogenized for 5 min in 200 μL of buffer comprised of 21.4 g sucrose, 5 mL of 1 M tris base, and 0.5 mL of 0.5 M EDTA/250 mL DPBS using the T-25 basic Ultra-Turrax homogenizer. Additional 100 μL aliquots of this buffer were then added to the homogenized sample and re-homogenized for 2 min until a total added volume of 800 μL was attained. The sample was diluted to 4 mL total volume using another buffer comprised of 5% BSA, and 0.03% Tween 20 in DPBS solution. Roche Complete protease inhibitor tablets were added to both buffers immediately prior to use (1 tablet/10 mL buffer). The sample was centrifuged at 16,000 g for 30 min at 4° C. Aliquots of the supernatant were stored at −80° C. until use.
HATCO HTS assay—To translate the assay initially performed on a cuvette to a 384-well format, the general protocol includes the following steps: A fresh stock solution of thioflavin-T was prepared in distilled and deionized water after passing through a micro filter. The concentration of […] was measured according to Beer's law with an extinction coefficient of 26,620 M^−1cm^−1 at 416 nm. The stock solution was stored in darkness using aluminum foil and kept at 4° C. throughout the assay. Unless stated, each assaying well contained 10 μM of thioflavin-T, 5 mg/mL of freshly isolated and homogenized brain lysate (5 μL) obtained from 5XFAD mice and with 30 μM of screening compounds. […] For the negative control, the wells contained the same components minus positive control. The protein concentration of brain lysate throughout the study was normalized. After equilibration for 10 min at room temperature, the FL signal of the sample was measured using a Biotek Synergy NEO plate reader at an emission lambda max of 485 nm using an excitation of 465 nm and the signals of the different conditions were analyzed. The final volume per well was 50 μL. All assays were performed using a single dose of screening compounds in triplicate.
Once the preliminary hit compounds were identified, a cross-screening protocol was employed to validate the hits with duplicated concentrations for each hit.

[2] = mouse, in vivo
Experimental: In the HPLC experiment, WT and 5XFAD mice (n=3, each) were injected with promethazine via the tail veins, and subsequently perfused 10 min or 4 h post-injection. Freshly isolated brains were homogenized to facilitate extraction and quantification via HPLC using the procedure we reported earlier.

[3] = tested on: Abeta plaques; test: Autoradiography of human brain tissues from Alzheimer's disease patients with [11C]promethazine PET probe; type: binding; conditions: human AD brain tissue sections soaked in probe in PBS; compared with a large excess of cold promethazine
Text: (A) Tissues ([…]) on glass slides were soaked in [^11C]promethazine PET probe diluted in PBS solution. (B) Tissues were soaked in the same solution as (A), albeit with the presence of a large excess of “cold” (unlabeled) promethazine, denoted as PMZ in the figure.

## 1,6,7,1′,6′,7′-Hexahydroxy-5,5′-diisopropyl-3,3′-dimethyl-[2,2′]binaphthalenyl-8,8′-dicarbaldehyde [VU0243640]
[1]
  IC50: 84.2 µM

## CC(CN1c2ccccc2Sc2ccccc21)N(C)C (centres unmarked) [Promethazine, N,N-dimethyl-1-(10H-phenothiazin-10-yl)propan-2-amine]
[1]
  IC50: 53.6 µM
[2]; 5XFAD versus WT, 10 min
  increase in promethazine retention in Aβ-burdened brains (5XFAD vs WT): ~4 fold
[2]; 5XFAD, 10 min
  level of promethazine measured in brain (mean): 9.62 µg
  original dose retained within the brain: 2%
[2]; 5XFAD, 240 min
  original dose retained within the brain: 0.5%
[2]; 10 min
  level of promethazine measured in brain (mean): 2.57 µg
  original dose retained within the brain: 0.5%
[2]; 240 min
  original dose retained within the brain: 0.01%

## Oc1ccc(/C=C/c2cc(O)cc(O)c2)cc1 [Resveratrol, (E)-5-(4-hydroxystyryl)benzene-1,3-diol]
[1]; 100 μM
  FL signal of thioflavin-T at 485 nm was reduced: 4.4%
[1]; 500 μM
  FL signal of thioflavin-T at 485 nm was reduced: 25.9%
[1]; 2000 μM
  FL signal of thioflavin-T at 485 nm was reduced: 51%

## O=C(O)c1cc(/N=N/c2ccc(S(=O)(=O)Nc3ccccn3)cc2)ccc1O [VU0243360, 2-Hydroxy-5-[4-(pyridine-2-ylsulfamoyl)-phenylazo]-benzoic acid]
[1]
  IC50: 68.1 µM

## O=C1C(Cl)=C(Cl)C(=O)C(Cl)=C1Cl [VU0243635, 2,3,5,6-Tetrachloro-[1,4]benzoquinone]
[1]
  IC50: 90.8 µM

## Nc1ccc(/N=N/c2ccccc2)c(N)n1 [VU0244402, 3-Phenylazo-pyridine-2,6-diamine]
[1]
  IC50: 74.3 µM

## O=C(N/N=C/c1ccc([N+](=O)[O-])o1)c1cc([N+](=O)[O-])cc([N+](=O)[O-])c1O [VU0656139, 2-Hydroxy-3,5-dinitro-benzoic acid (5-nitro-furan-2-ylmethylene)-hydrazide]
[1]
  IC50: 61.2 µM

## CC(CN1c2ccccc2Sc2ccccc21)N(C)C (centres unmarked) [[^11C]promethazine]
[3]
  binding to Abeta plaques by autoradiography: bound to Abeta plaques

Source: US12687540B2, “Amyloid-binding compounds and methods of use thereof” (Vanderbilt University, priority 2019, dated 2026)
